Assay [1] has as its target T1, VCB (VHL, elongin B, elongin C) (Homo sapiens, UniProt P40337).
T1 construct: VHL (UniProt: P40337, aa 1–213); His6 (N); made in house; host or cells: E. coli BL21 (DE3)
Description: FP displacement assay with VCB (binary and ternary KD, cooperativity). The class given is binding. The method, then:
Fluorescence polarization (FP) displacement assays with METTL3/14 (ref. [36]) and VCB[38–40] were performed following previous protocols with slight adaptations. All experiments were conducted in black Greiner 96-well half-area plates using a Tecan Spark 10 M plate reader, equipped with polarization filters coupled to a monochromator setup (λex = 480 nm, λem = 530 nm). Reaction mixtures for METTL3/14 contained 300 nM recombinant enzyme, 20 nM FAM-labelled displacement tracer (STM-FL[36]), and the test compounds at varying concentrations in 25 mM Tris HCl, pH 7.5, 100 mM NaCl, and 10% DMSO. For VCB, the mixtures contained 40 nM recombinant enzyme, 10 nM FAM-labelled probe (FAM-DEALAHyp[…], Tocris Bioscience), and the tested compounds, at varying concentrations, in 50 mM Tris, pH 7.5, 200 mM NaCl, 2 mM DTT, and 10% DMSO. […] All measurements were performed at least as technical triplicates. Polarization values (mP) were determined from polarization-specific parallel and orthogonal fluorescence intensities using the Tecan in-built calculation routine. Using GraphPad Prism 8.0.1, the FP values were normalized, and KD values were calculated using a 4-parameter Hill equation: y(% probe bound) = bottom + ([ligand]slope) × (top–bottom)/([ligand]slope + KD slope).

The subject of the next assay is METTL3. Further details: method as in PMID 38194973. Particulars: cited from earlier work.
The target in the next assay is T2, human VHL (Homo sapiens, UniProt P40337).
T2 construct: purchased Revvity
The assay can be described thus: HTRF human VHL binding kit. Conditions: VHL affinity in presence and absence of METTL3/14 (4 μM). The method, then:
PROTACs binding to VHL or CRBN were measured using a homogeneous time-resolved fluorescence (HTRF) human VHL or CRBN binding kit (Revvity). Samples were prepared according to the manufacturer's protocol, with compounds diluted in the provided diluent while maintaining a constant DMSO concentration with a final concentration of 1.25%. For the ternary KD determinations, METTL3/14 was added at 4 μM, corresponding to approximately a 20- to 40-fold excess of binary KD, while all other component concentrations were kept as specified in the protocol. Measurements were performed in triplicate using a Tecan Spark 10 M plate reader, recording donor and acceptor emissions at λem_donor = 620 nm and λem_acceptor = 665 nm, respectively, following excitation of the HTRF donor at λex = 320 nm. The acceptor-to-donor emission ratio was calculated as ratio = signal 665 nm/signal 620 nm. Using GraphPad Prism 8.0.1, the fluorescence values were normalized, and KD values were calculated as specified above.

For another assay, the system named is MOLM-13 cells. Description: Cell viability assay (CellTiter Glo 2.0). The class given is cell-based, human. Conditions: Homo sapiens, MOLM-13, 72 h; read-out: IC50 (cell viability inhibition). The method, then: To determine cell viability, MOLM-13 cells were treated with the indicated compounds in a 1 : 1 serial dilution, with pure DMSO (final: 0.1%) as the negative control. Briefly, 1000 cells were seeded in black Greiner half-area 96-well plates and incubated for 72 h with inhibitors from DMSO stocks under standard cultivation conditions. Then, Promega CellTiter Glo 2.0 reagent was added to each well according to the manufacturer's protocols, and luminescence was measured using a Tecan Spark 10 M. Experiments were conducted in technical triplicate. Data was normalized to the DMSO control and analyzed with GraphPad Prism 8.0.1 to determine EC50 values. Synergistic effects of venetoclax and AF151 on cell MOLM-13 viability were conducted accordingly, with dilution series of both compounds analyzed using the SynergyFinder+ webtoolkit.[57]

Molecules are shown by their SMILES. “And” between values parts separate entries of the source, which are not always exact repeats. Identical values can stand only once. Like-named read-outs stand apart in the source and are kept apart here.

As a reminder, the Kd is a measure of binding affinity in units of concentration. As usually defined, the DC50 is the midpoint of the concentration-degradation curve. As usually defined, the IC50 is the point on the concentration scale where inhibition reaches its midpoint.

T1 sequence (P40337 whole entry, the tested form may be a part): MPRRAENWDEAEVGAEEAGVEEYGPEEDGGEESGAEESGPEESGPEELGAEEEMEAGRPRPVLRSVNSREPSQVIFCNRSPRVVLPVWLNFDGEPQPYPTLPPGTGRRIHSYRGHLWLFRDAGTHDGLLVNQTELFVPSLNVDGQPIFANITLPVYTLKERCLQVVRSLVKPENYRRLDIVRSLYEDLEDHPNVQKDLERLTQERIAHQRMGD
T1 sequence (Q15370 whole entry partner, the tested form may be a part): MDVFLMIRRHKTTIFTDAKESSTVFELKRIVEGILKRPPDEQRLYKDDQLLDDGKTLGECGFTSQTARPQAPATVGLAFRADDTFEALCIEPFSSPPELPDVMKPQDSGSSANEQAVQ
T1 sequence (Q15369 17-112 partner limits assumed): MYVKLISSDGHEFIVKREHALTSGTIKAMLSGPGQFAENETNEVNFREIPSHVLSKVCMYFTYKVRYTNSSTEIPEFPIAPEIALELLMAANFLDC
T2 sequence (P40337 whole entry): as the sequence (P40337 whole entry, the tested form may be a part) above
T2 sequence (Q15370 whole entry partner): as the sequence (Q15370 whole entry partner, the tested form may be a part) above
T2 sequence (Q15369 whole entry partner): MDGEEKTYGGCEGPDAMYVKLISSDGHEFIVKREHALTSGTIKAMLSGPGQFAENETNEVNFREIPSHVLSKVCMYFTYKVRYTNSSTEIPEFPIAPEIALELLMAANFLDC

As for `Cc1ncsc1-c1ccc([C@H](C)NC(=O)[C@@H]2C[C@@H](O)CN2C(=O)[C@@H](NC(=O)CCC#Cc2ccc(CNc3cc(N4CCC5(CC4)CN(c4cc(F)c(CN6CCC(C)(C)CC6)cc4F)CC(=O)N5)ncn3)cc2)C(C)(C)C)cc1` [WD6305], the Kd in assay [1] (40 nM VCB, 10 nM probe, absence of METTL3, read-out: KD E3-ligases (VHL, FP), binary) is 1700 nM; in assay [1] (absence of METTL3, read-out: KD binary (VHL)) it was 1760 ± 264 nM; in assay [1] (presence of METTL3/14 (12 μM), read-out: KD ternary (VHL)) it was 77.4 nM and 79 nM. Moreover, the “Dmax (METTL3 degradation)” value with METTL3 is given as about 91%. Besides, in the assay with METTL3 (read-out: DC50 (METTL3 degradation)), the half-maximal degradation concentration (DC50) was 140 nM. The “cooperativity (HTRF)” value on human VHL was “positive cooperativity”. Further, the IC50 in the assay with MOLM-13 cells worked out at 780 nM.

Source of the values: publication PMC12207533, “Structure-guided design of a methyltransferase-like 3 (METTL3) proteolysis targeting chimera (PROTAC) incorporating an indole–nicotinamide chemotype” (RSC Medicinal Chemistry, 2025).
